From publication PMC6704710, “Preclinical evaluation of 3D185, a novel potent inhibitor of FGFR1/2/3 and CSF-1R, in FGFR-dependent and macrophage-dominant cancer models” (Journal of Experimental & Clinical Cancer Research : CR, 2019)

Legend:
Experiment in all cases: Eurofins kinase panel
Type in all cases: biochemical
Settings in all cases: read-out: Inhibition rate (%)
CDK18/cyclinY(h) = target: T1, CDK18/cyclinY(h) (Homo sapiens, UniProt Q07002)
T1 construct: purchased Eurofins (KinaseProfiler)

ULK1(h) = target: T2, ULK1(h) (Homo sapiens, UniProt O75385)
T2 construct: purchased Eurofins (KinaseProfiler)
T2 sequence (O75385 1-1050): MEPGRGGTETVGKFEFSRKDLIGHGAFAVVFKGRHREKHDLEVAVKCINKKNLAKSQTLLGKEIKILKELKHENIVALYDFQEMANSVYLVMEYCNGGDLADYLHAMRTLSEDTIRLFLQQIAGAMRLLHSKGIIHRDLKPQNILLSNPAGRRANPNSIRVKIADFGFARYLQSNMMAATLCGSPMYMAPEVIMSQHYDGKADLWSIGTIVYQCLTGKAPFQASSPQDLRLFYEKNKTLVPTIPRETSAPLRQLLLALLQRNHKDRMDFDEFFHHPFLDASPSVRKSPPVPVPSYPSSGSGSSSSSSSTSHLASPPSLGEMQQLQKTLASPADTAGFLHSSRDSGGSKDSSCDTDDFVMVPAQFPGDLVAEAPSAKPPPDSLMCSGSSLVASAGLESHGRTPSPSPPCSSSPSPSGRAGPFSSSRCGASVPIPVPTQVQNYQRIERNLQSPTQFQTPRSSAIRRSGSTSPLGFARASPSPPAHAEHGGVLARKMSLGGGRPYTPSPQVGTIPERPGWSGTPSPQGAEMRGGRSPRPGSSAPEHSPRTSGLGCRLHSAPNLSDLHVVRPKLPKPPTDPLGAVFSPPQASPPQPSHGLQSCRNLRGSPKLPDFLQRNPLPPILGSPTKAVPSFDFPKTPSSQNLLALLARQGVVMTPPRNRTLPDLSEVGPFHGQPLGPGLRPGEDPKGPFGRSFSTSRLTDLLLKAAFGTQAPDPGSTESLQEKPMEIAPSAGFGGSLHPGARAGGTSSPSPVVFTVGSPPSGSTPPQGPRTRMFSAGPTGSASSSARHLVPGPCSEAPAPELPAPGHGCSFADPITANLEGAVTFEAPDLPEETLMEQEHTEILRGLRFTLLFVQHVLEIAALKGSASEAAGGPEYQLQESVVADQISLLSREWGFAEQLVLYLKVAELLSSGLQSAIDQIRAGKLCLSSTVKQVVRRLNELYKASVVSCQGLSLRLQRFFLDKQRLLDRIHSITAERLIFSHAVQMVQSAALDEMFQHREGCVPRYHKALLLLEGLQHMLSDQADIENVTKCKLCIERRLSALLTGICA

SIK(h) = target: T3, SIK(h) (Homo sapiens, UniProt P57059)
T3 construct: purchased Eurofins (KinaseProfiler)

MST2(h) = target: T4, MST2(h) (Homo sapiens, UniProt Q13188)
T4 construct: purchased Eurofins (KinaseProfiler)
T4 sequence (Q13188 1-491): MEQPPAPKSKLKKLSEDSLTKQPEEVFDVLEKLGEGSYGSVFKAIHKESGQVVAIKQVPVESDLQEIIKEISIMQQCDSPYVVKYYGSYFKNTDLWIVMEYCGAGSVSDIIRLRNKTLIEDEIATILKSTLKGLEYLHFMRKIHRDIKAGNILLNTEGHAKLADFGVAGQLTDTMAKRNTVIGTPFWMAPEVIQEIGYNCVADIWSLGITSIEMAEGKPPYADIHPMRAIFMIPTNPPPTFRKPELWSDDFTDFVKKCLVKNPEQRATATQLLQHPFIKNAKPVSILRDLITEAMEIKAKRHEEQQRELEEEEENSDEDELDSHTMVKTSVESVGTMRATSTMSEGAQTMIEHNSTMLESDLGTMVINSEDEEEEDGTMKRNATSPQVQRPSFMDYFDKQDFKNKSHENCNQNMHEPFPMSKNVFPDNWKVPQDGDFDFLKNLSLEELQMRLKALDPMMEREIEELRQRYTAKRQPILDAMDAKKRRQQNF

Yes(h) = target: T5, Yes(h) (Homo sapiens, UniProt P07947)
T5 construct: purchased Eurofins (KinaseProfiler)

CK2(h) = target: T6, CK2(h) (Homo sapiens, UniProt P68400)
T6 construct: purchased Eurofins (KinaseProfiler)

MEKK2(h) = target: T7, MEKK2(h) (Homo sapiens, UniProt Q9Y2U5)
T7 construct: purchased Eurofins (KinaseProfiler)
T7 sequence (Q9Y2U5 1-619): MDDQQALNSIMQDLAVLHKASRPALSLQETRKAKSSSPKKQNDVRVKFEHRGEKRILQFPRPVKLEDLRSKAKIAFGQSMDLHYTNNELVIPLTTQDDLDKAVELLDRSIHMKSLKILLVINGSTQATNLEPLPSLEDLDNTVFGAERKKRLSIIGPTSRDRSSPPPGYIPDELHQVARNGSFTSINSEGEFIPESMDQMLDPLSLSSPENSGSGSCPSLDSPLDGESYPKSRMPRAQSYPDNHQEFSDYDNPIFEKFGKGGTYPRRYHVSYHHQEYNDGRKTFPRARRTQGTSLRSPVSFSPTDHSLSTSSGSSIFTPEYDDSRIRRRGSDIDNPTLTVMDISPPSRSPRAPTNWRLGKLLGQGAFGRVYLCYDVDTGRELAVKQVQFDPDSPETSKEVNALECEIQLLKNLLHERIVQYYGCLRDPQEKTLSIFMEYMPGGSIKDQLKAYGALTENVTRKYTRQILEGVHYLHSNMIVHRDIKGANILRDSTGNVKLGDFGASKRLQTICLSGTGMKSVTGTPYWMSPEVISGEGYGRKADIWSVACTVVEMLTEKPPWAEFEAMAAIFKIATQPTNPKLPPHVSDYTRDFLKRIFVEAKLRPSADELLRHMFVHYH

T5 sequence (P07947 whole entry): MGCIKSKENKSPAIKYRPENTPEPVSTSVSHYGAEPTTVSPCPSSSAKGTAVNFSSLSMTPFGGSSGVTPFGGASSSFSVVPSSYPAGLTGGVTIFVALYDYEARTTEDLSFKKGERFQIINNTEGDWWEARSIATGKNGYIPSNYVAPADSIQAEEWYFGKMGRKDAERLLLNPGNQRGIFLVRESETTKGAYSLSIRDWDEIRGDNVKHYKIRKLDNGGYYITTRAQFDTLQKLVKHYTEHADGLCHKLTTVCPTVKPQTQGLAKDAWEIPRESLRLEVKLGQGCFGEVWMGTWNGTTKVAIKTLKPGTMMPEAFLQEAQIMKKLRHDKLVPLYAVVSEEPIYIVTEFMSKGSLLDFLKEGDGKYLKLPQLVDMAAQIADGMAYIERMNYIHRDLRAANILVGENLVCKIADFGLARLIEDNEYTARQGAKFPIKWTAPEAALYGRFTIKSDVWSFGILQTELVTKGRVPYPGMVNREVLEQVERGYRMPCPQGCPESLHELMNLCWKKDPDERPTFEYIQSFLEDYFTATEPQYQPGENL
T3 sequence (P57059 whole entry): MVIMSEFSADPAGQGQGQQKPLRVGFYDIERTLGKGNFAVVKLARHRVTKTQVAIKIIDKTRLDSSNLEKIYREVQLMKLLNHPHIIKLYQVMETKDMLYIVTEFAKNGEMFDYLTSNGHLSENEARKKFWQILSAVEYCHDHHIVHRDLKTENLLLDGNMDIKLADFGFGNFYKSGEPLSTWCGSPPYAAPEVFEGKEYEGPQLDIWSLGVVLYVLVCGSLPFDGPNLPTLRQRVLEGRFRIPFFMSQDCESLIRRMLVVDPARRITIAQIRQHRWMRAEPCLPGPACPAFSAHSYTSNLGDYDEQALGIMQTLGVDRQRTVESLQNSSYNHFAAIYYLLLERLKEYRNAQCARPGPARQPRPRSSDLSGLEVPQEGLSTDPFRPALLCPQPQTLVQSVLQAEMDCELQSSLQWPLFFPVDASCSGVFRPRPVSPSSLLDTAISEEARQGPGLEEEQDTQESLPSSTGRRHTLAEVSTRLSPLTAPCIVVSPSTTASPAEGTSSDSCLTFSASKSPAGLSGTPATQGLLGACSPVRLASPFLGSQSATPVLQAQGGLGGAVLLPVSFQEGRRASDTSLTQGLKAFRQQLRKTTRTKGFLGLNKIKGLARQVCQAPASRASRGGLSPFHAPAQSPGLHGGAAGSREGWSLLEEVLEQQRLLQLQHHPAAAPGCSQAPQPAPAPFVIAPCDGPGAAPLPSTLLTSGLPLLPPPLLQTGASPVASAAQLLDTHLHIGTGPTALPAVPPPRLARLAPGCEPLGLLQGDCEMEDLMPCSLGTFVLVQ
T6 sequence (P68400 whole entry): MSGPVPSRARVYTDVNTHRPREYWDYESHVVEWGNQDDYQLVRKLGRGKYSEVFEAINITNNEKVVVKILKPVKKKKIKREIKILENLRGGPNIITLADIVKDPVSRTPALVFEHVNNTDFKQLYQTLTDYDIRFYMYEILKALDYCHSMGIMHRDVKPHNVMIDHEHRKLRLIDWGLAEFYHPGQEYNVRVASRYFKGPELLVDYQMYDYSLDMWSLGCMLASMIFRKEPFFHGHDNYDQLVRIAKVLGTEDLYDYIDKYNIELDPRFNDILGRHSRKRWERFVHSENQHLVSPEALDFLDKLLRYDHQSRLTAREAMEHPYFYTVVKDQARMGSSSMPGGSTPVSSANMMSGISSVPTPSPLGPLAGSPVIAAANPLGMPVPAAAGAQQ
T6 sequence (P67870 whole entry partner): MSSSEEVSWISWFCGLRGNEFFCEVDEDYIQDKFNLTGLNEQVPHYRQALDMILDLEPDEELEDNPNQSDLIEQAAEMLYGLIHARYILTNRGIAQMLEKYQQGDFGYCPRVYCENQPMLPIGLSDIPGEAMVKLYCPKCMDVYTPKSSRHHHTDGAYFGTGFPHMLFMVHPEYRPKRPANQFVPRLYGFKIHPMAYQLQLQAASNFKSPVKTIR
T1 sequence (Q07002 whole entry): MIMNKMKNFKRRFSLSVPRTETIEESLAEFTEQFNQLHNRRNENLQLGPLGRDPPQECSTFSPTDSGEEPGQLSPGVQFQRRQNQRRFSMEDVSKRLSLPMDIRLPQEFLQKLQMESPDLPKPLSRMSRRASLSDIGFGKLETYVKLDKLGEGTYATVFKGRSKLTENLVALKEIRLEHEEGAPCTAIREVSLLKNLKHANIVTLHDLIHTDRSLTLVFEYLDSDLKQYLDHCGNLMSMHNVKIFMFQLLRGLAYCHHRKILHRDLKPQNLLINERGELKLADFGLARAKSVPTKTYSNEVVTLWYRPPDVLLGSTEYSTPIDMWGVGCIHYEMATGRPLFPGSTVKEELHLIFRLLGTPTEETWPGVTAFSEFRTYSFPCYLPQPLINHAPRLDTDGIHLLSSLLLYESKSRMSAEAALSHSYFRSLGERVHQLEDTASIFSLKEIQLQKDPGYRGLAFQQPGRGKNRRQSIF
T1 sequence (Q8ND76 whole entry partner): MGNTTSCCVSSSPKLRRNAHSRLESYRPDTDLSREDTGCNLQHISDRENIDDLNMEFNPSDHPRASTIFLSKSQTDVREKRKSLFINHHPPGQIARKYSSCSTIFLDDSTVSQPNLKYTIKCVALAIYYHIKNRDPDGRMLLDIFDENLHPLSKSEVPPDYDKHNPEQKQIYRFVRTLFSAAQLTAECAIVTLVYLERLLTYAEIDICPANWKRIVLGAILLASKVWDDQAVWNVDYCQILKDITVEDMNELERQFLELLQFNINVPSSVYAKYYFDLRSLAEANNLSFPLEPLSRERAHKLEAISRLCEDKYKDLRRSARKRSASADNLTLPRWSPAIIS

Work on `COc1cc(OC)c(Cl)c(-c2ccc3c(NC(=O)c4ccc(N5CCNC(C)(C)C5)cc4)n[nH]c3n2)c1Cl` [3D185] yielded an inhibition at 0.01 µM (CDK18/cyclinY(h); 10 nM) of 10%, an inhibition at 0.1 µM (CDK18/cyclinY(h); 100 nM) of 12% and an inhibition at 1 µM (CDK18/cyclinY(h); 1000 nM) of 15%. It also gave an inhibition at 0.01 µM (ULK1(h); 10 nM) of -2%, an inhibition at 0.1 µM (ULK1(h); 100 nM) of 4% and an inhibition at 1 µM (ULK1(h); 1000 nM) of 5%. It also gave an inhibition at 0.01 µM (SIK(h); 10 nM) of 4%, an inhibition at 0.1 µM (SIK(h); 100 nM) of -17% and an inhibition at 1 µM (SIK(h); 1000 nM) of -5%. For the same compound, the inhibition at 0.01 µM (MST2(h); 10 nM) was 16%, the inhibition at 0.1 µM (MST2(h); 100 nM) was 41% and the inhibition at 1 µM (MST2(h); 1000 nM) was 65%. The inhibition at 0.01 µM (Yes(h); 10 nM) was 10%, the inhibition at 0.1 µM (Yes(h); 100 nM) was 66% and the inhibition at 1 µM (Yes(h); 1000 nM) was 97%. The inhibition at 0.01 µM (CK2(h); 10 nM) was 2%, the inhibition at 0.1 µM (CK2(h); 100 nM) was 9% and the inhibition at 1 µM (CK2(h); 1000 nM) was 9%. It also gave an inhibition at 0.01 µM (MEKK2(h); 10 nM) of 34%, an inhibition at 0.1 µM (MEKK2(h); 100 nM) of 85% and an inhibition at 1 µM (MEKK2(h); 1000 nM) of 97%.
